Measurements taken from PubChem BioAssay AID248 (DTP/NCI, 2004).
“And” between values parts separate entries of the source, which are not always exact repeats. Equal entries are not always repeated. Toxic doses and inconclusive results are not listed. Cut-off read from the data, not from the text of the source: active = T/C of 150% or more; inactive = T/C below 125%.

System: L1210 leukemia ip in BDF1 mice, survival T/C
Assay: NCI In Vivo Anticancer Drug Screen. Data for tumor model L1210 Leukemia (intraperitoneal) in B6D2F1 (BDF1) mice
Details: endpoint: mean survival time, vehicle: water, higher = longer survival
Procedure, shortened: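 Transplanted-tumor mice were given test agent; controls received vehicle only. Survival readings from the two groups were divided (treated over control).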

Measured: T/C

O=C(NO)c1ccncc1
inactive: dose: 6.25 mg/kg/injection, schedule: Q03HX008 (ip) 96 % of control | dose: 12.5 mg/kg/injection, schedule: Q03HX008 (ip) 100 % of control | dose: 18.75 mg/kg/injection, schedule: Q03HX008 (ip) 95 % of control | dose: 25.0 mg/kg/injection, schedule: Q01DX005 (iv) 100 % of control | dose: 33.0 mg/kg/injection, schedule: Q#B X027 (sc) 98 % of control | dose: 50.0 mg/kg/injection, schedule: Q01DX005 (iv) 100 % of control and 105 % of control | dose: 50.0 mg/kg/injection, schedule: Q01DX009 (sc) 98 % of control | dose: 67.0 mg/kg/injection, schedule: Q#B X027 (ip) 98 % of control | dose: 100.0 mg/kg/injection, schedule: Q01DX005 (iv) 101 % of control and 102 % of control and 105 % of control | dose: 100.0 mg/kg/injection, schedule: Q01DX009 (ip) 94 % of control and 100 % of control | dose: 100.0 mg/kg/injection, schedule: Q01DX009 (sc) 93 % of control and 100 % of control | dose: 100.0 mg/kg/injection, schedule: Q01DX010 (ip) 106 % of control | dose: 125.0 mg/kg/injection, schedule: Q01DX001 (ip) 97 % of control | dose: 133.0 mg/kg/injection, schedule: Q#B X027 (ip) 103 % of control | dose: 134.0 mg/kg/injection, schedule: Q#B X027 (sc) 107 % of control | dose: 200.0 mg/kg/injection, schedule: Q01DX001 (ip) 107 % of control | dose: 200.0 mg/kg/injection, schedule: Q01DX005 (ip) 101 % of control | dose: 200.0 mg/kg/injection, schedule: Q01DX005 (iv) 100 % of control and 101 % of control | dose: 200.0 mg/kg/injection, schedule: Q01DX009 (sc) 96 % of control | dose: 200.0 mg/kg/injection, schedule: Q01DX010 (ip) 107 % of control | dose: 200.0 mg/kg/injection, schedule: Q01DX Z (ip) 117 % of control | dose: 200.0 mg/kg/injection, schedule: Q02DX Z (ip) 114 % of control | dose: 200.0 mg/kg/injection, schedule: Q04DX003 (ip) 103 % of control | dose: 200.0 mg/kg/injection, schedule: Q08DX002 (ip) 103 % of control | dose: 200.0 mg/kg/injection, schedule: Q#A X030 (ip) 98 % of control | dose: 200.0 mg/kg/injection, schedule: Q#B X027 (ip) 122 % of control | dose: 200.0 mg/kg/injection, schedule: Q#B X027 (sc) 98 % of control | dose: 220.0 mg/kg/injection, schedule: Q01DX Z (ip) 111 % of control | dose: 222.0 mg/kg/injection, schedule: Q01DX015 (ip) 104 % of control | dose: 222.0 mg/kg/injection, schedule: Q01DX Z (ip) 105 % of control and 106 % of control and 119 % of control | dose: 225.0 mg/kg/injection, schedule: Q01DX Z (ip) 109 % of control | dose: 250.0 mg/kg/injection, schedule: Q01DX001 (ip) 94 % of control and 108 % of control | dose: 250.0 mg/kg/injection, schedule: Q01DX005 (iv) 97 % of control | dose: 250.0 mg/kg/injection, schedule: Q01DX009 (oral) 96 % of control and 98 % of control | dose: 250.0 mg/kg/injection, schedule: Q01DX009 (sc) 93 % of control | dose: 250.0 mg/kg/injection, schedule: Q01DX015 (iv) 106 % of control | dose: 250.0 mg/kg/injection, schedule: Q03HX024 (ip) 100 % of control | dose: 267.0 mg/kg/injection, schedule: Q#B X027 (sc) 97 % of control | dose: 270.0 mg/kg/injection, schedule: Q01DX015 (ip) 121 % of control | dose: 300.0 mg/kg/injection, schedule: Q01DX015 (im) 93 % of control | dose: 300.0 mg/kg/injection, schedule: Q01DX Z (ip) 112 % of control | dose: 300.0 mg/kg/injection, schedule: Q02DX Z (ip) 112 % of control | dose: 300.0 mg/kg/injection, schedule: Q#A X030 (ip) 98 % of control | dose: 333.0 mg/kg/injection, schedule: Q01DX015 (ip) 119 % of control | dose: 333.0 mg/kg/injection, schedule: Q01DX Z (ip) 120 % of control | dose: 335.0 mg/kg/injection, schedule: Q01DX Z (ip) 97 % of control and 116 % of control | dose: 400.0 mg/kg/injection, schedule: Q01DX001 (ip) 100 % of control | dose: 400.0 mg/kg/injection, schedule: Q01DX005 (iv) 103 % of control | dose: 400.0 mg/kg/injection, schedule: Q01DX009 (sc) 100 % of control | dose: 400.0 mg/kg/injection, schedule: Q01DX015 (ip) 111 % of control | dose: 400.0 mg/kg/injection, schedule: Q01DX015 (sc) 104 % of control | dose: 400.0 mg/kg/injection, schedule: Q04DX003 (ip) 114 % of control | dose: 400.0 mg/kg/injection, schedule: Q08DX002 (ip) 105 % of control | dose: 500.0 mg/kg/injection, schedule: Q01DX001 (ip) 111 % of control and 113 % of control | dose: 500.0 mg/kg/injection, schedule: Q01DX005 (iv) 100 % of control | dose: 500.0 mg/kg/injection, schedule: Q01DX009 (oral) 93 % of control and 105 % of control | dose: 500.0 mg/kg/injection, schedule: Q01DX009 (sc) 94 % of control and 100 % of control | dose: 500.0 mg/kg/injection, schedule: Q01DX015 (im) 104 % of control | dose: 500.0 mg/kg/injection, schedule: Q01DX015 (ip) 121 % of control | dose: 500.0 mg/kg/injection, schedule: Q01DX015 (oral) 97 % of control | dose: 500.0 mg/kg/injection, schedule: Q03HX024 (ip) 98 % of control | dose: 600.0 mg/kg/injection, schedule: Q01DX001 (ip) 105 % of control | dose: 600.0 mg/kg/injection, schedule: Q01DX005 (ip) 101 % of control | dose: 600.0 mg/kg/injection, schedule: Q01DX005 (iv) 103 % of control | dose: 600.0 mg/kg/injection, schedule: Q01DX015 (sc) 98 % of control | dose: 600.0 mg/kg/injection, schedule: Q02DX Z (ip) 123 % of control | dose: 600.0 mg/kg/injection, schedule: Q03DX005 (ip) 108 % of control | dose: 600.0 mg/kg/injection, schedule: Q04DX003 (ip) 120 % of control | dose: 600.0 mg/kg/injection, schedule: Q08DX002 (ip) 105 % of control | dose: 750.0 mg/kg/injection, schedule: Q01DX009 (oral) 100 % of control | dose: 750.0 mg/kg/injection, schedule: Q01DX009 (sc) 111 % of control | dose: 750.0 mg/kg/injection, schedule: Q01DX015 (im) 113 % of control | dose: 750.0 mg/kg/injection, schedule: Q01DX015 (ip) 113 % of control | dose: 750.0 mg/kg/injection, schedule: Q03HX024 (ip) 96 % of control | dose: 800.0 mg/kg/injection, schedule: Q01DX005 (ip) 107 % of control | dose: 800.0 mg/kg/injection, schedule: Q01DX Z (ip) 114 % of control | dose: 800.0 mg/kg/injection, schedule: Q03DX005 (ip) 107 % of control | dose: 800.0 mg/kg/injection, schedule: Q08DX002 (ip) 111 % of control | dose: 900.0 mg/kg/injection, schedule: Q01DX001 (ip) 105 % of control | dose: 1000.0 mg/kg/injection, schedule: Q01DX001 (ip) 106 % of control | dose: 1000.0 mg/kg/injection, schedule: Q01DX009 (oral) 102 % of control and 105 % of control | dose: 1000.0 mg/kg/injection, schedule: Q01DX015 (oral) 109 % of control | dose: 1000.0 mg/kg/injection, schedule: Q03HX024 (ip) 95 % of control | dose: 1100.0 mg/kg/injection, schedule: Q03DX005 (ip) 108 % of control | dose: 1500.0 mg/kg/injection, schedule: Q03HX024 (ip) 113 % of control
